Results taken from publication PMC9519446, “Discovery of an Orally Active Benzoxaborole Prodrug Effective in the Treatment of Chagas Disease in Non-human Primates” (Nature microbiology, 2022).
“And” between values parts separate entries of the source, which are not always exact repeats. Equal values may be shown once.

Key:
[1] = Pharmacokinetics in rats (IV and PO); design: species or system rat; details: in vivo
Method: Rat IV (2 mg/kg) Rat PO (10 mg/kg)
Cl (mL/h/kg) 2258 AUC0-last (hr*µg/mL) 3.34
AUC0-last (hr*µg/mL) 0.883
for AN15368 in rats. Data are presented as mean values +/- SEM; n= 3 animals.

[2] = tested on: CPSF3 mutant T. cruzi intracellular amastigotes; assay: Intracellular amastigote assay with CPSF3 Asn to His mutant T. cruzi; type: cell-based, Trypanosoma cruzi; details: for % of maximum: Fig 5.d, CPSF3-mutant
Method: The in vitro anti-T. cruzi amastiogote activity assay was performed and optimized based on the protocol described previously. The change in tdTomato fluorescence intensity was determined as a measurement of growth over 72 hours of culture. For assaying drug effects on extracellular amastigotes, trypomastigotes were collected from infected Vero cell cultures and converted in acidic media as previously described. Amastigotes (50,000/well) were incubated with 2-fold serial dilutions of compounds for 48 hours. The ATP production was used as an indication of growth in this case, and was measured by ATPlite Luminescence ATP Detection Assay System (PerkinElmer). Both fluorescence and luminescence were read using a BioTek Synergy Hybrid Multi-Mode reader equipped with the software Gene5 v 2.0 (BioTek). The dose-response curve was generated by […] analysis with GraphPad Prism v9.4.0 (GraphPad Software).
To generate CPSF3 mutant, a RNP c omplex was transfected into Brazil tdTomato strain epimastigotes to target the CPSF3 gene (TcBrA4_0124800), together with a repair template that contained the mutation of Asn^231 to His[21]. The sgRNA targeted the ‘[…]’ site. […] The ultimate resistant parasites were validated to have acquired the Asn^231His mutation in CPSF3 via sequencing.

[3] = tested on: tdTomato expressing T. cruzi (CL strain); assay: Rapid in vivo assay: footpad infection, single oral dose, fluorescence imaging 2 and 4 dpi (proliferation index);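 on Parasite proliferation index of footpads infected with tdTomato-expressing T. cruzi: single oral dose of 50 mg/kg given at 2 dpi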; design: species or system C57BL/6 mice; details: for Fluorescence intensity of the feet of mice infected with tdTomato-expressing T. cruzi: individual feet
Method: Fluorescent intensity of the feet was measured at 2 dpi before compound administration and at 4 dpi in the Maestro in vivo imaging system equipped with the software Maestro 2.1.0 (CRi) as previously described. The proliferation index was estimated as PI=[(T4d – T2d)/(mUnt4d-mUnt2d)]*100; where T4d and T2d are the fluorescence intensity of the feet of the treated animals at days 4 and 2 post-infection respectively; mUnt4d and mUnt2d are the average fluorescence intensity of the feet of the untreated animals at 4 and 2 dpi respectively.

Cc1c(C(=O)N[C@H](C(=O)OCC2CCOCC2)C(C)C)ccc2c1B(O)OC2 [AN15368]
AUC(0-t) ([1]; Rat IV (2 mg/kg)): 883 ng·h/mL | Cmax ([1]; Rat IV (2 mg/kg)): 1700 ± 200 ng/mL | clearance ([1]; Rat IV (2 mg/kg)): 37.6 mL/min/kg | Vd ([1]; Rat IV (2 mg/kg), read-out: Vss): 1.11 L/kg | AUC(0-t) ([1]; Rat PO (10 mg/kg)): 3340 ng·h/mL | Cmax ([1]; Rat PO (10 mg/kg)): 2100 ± 290 ng/mL | bioavailability ([1]; Rat PO (10 mg/kg)): 76.1% | % of maximum ([2]; 0.10): 3% and 1% | % of maximum ([2]; 0.40): -6% | % of maximum ([2]; 0.70): 2% and -5% | % of maximum ([2]; 1.00): -6% and -2% | % of maximum ([2]; 1.30): -4% and -2% and 5% | % of maximum ([2]; -0.51): 97% and 106% and 96% | % of maximum ([2]; -0.81): 96% and 123% and 105% | % of maximum ([2]; -1.11): 92% and 97% and 122% | IC50 ([2]; Trypanosoma cruzi, read-out: CPSF3 mutant IC50): 500 nM

Cc1c(C(=O)NC(C(=O)OCc2ccc(F)c(F)c2)C(C)C)ccc2c1B(O)OC2 (stereo not shown) [AN14353]
Fluorescence intensity of the feet of mice infected with tdTomato-expressing T. cruzi ([3]; 0.8 mg/kg): 1665.8 and 1203.3 and 1103.9 and 2856.3 and 2240.9 and 2906.1 and 796.9 and 2912.6 and 793.9 and 2840.0 | Fluorescence intensity of the feet of mice infected with tdTomato-expressing T. cruzi ([3]; 3.2 mg/kg): 1183.1 and 248.0 and 552.8 and 1244.2 and 574.1 and 807.8 and 439.5 and 1642.2 and 2070.5 and 1949.8 | Fluorescence intensity of the feet of mice infected with tdTomato-expressing T. cruzi ([3]; 12.5 mg/kg): 556.7 and -13.5 and -118.4 and 985.8 and 248.2 and 312.2 and -170.7 and 977.4 and 456.5 and 1102.8 | Fluorescence intensity of the feet of mice infected with tdTomato-expressing T. cruzi ([3]; 25 mg/kg): 916.6 and 1396.9 and 669.0 and 929.6 and 109.0 and 109.7 and 3.9 and 55.6 and 1126.1 and 448.9 | Fluorescence intensity of the feet of mice infected with tdTomato-expressing T. cruzi ([3]; 40 mg/kg): 248.7 and 316.0 and 101.3 and 60.4 and 606.3 and -64.8 and 95.6 and 476.3 and 738.5 and 600.3 | Parasite proliferation index of footpads infected with tdTomato-expressing T. cruzi ([3]; Fig. 3a, individual footpads): 1.9 and 17.1 and 45.9 and 24.7 and 19.1 and 29.9 and -18.9 and -3.0 and 31.4 and 4.1
